The target in assay [1] is T1, NaPi-IIb (Homo sapiens, UniProt O95436).
T1 sequence (O95436 1-690): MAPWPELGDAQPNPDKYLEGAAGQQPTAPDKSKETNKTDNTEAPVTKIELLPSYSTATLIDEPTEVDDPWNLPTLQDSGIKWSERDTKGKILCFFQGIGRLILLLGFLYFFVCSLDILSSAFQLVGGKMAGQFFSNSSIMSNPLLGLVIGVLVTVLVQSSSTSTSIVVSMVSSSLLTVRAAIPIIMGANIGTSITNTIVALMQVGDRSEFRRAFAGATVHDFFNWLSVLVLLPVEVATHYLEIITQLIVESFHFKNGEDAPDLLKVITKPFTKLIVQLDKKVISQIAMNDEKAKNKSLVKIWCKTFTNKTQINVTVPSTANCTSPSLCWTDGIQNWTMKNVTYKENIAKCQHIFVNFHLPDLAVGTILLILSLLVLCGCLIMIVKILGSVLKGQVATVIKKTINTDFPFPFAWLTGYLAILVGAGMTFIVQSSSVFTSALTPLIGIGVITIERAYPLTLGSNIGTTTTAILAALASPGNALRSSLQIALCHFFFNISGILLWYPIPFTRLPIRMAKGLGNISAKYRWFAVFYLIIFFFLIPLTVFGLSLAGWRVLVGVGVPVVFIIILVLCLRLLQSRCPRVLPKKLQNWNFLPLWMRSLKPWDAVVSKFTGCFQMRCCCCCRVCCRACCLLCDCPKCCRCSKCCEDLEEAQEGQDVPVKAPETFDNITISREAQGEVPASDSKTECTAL
The following applies: duodenal and jejunal BBM; cited from earlier work.

Assay [2] deals with T2, NaPi-IIa (Homo sapiens, UniProt Q06495).
T2 sequence (Q06495 1-639): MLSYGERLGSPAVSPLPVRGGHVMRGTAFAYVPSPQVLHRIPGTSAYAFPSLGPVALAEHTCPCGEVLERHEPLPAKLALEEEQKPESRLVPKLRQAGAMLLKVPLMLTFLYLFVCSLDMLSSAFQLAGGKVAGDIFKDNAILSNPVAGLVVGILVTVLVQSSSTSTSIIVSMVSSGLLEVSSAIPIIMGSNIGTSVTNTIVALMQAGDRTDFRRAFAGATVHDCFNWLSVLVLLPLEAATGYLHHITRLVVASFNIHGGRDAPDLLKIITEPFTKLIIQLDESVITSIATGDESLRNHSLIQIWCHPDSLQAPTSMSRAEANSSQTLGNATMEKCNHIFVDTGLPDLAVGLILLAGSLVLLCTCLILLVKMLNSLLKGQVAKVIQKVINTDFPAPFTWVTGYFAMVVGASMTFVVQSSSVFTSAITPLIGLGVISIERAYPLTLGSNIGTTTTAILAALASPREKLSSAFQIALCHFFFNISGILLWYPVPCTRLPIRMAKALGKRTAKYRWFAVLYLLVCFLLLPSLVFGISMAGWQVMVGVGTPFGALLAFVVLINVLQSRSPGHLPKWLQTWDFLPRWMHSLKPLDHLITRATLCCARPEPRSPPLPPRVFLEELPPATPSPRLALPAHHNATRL
The following applies: proximal renal tubule BBM (S1-S3); cited from earlier work.

Assay [3] concerns the target T3, NaPi-IIc (Homo sapiens, UniProt Q8N130).
T3 sequence (Q8N130 1-599): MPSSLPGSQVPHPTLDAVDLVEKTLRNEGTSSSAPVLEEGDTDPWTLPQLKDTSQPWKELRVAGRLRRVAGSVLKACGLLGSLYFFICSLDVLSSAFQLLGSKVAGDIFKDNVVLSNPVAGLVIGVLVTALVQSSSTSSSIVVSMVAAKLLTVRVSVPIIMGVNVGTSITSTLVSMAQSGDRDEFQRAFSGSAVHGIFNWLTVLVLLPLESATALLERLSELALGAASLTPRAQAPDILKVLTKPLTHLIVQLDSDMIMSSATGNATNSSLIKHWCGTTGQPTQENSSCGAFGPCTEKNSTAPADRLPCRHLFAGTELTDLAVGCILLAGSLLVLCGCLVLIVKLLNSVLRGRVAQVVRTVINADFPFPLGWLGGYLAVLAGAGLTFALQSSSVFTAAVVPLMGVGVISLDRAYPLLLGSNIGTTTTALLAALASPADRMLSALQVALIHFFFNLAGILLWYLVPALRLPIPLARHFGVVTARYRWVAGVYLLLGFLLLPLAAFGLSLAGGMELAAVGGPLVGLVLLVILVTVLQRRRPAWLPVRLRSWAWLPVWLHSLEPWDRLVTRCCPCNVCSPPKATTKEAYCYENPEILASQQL
The note with it: proximal renal tubule BBM (S1); cited from earlier work.

For assay [4] the following is noted: human, CKD patients; cited from earlier work.
The conditions of assay [5]: animals; cited from earlier work.
For assay [6], the system named is NaPi-IIb receptor. Briefly: Expression of NaPi-IIb receptor in the small intestine over 5 weeks (FIG. 1). It counts as in vivo. The note with it: nicotinamide 10 mg/kg body weight, conventional binder calcium carbonate 10 mg/kg, sevelamer 20 mg/kg body weight.
For assay [7] the following is noted: intraperitoneal administration; cited from earlier work.
Assay [8] concerns NaPi-IIb. The note with it: intraperitoneal administration; cited from earlier work.
A short description of assay [9]: Clinical study of serum phosphate levels in CKD patients on hemodialysis (FIG. 2-5). The assay is classed as in vivo, human. The source says: A study has been undertaken wherein administration of a conventional phosphate binder as well as administration of nicotinamide has been compared with the administration of a combination of a phosphate binder and nicotinamide. For concrete numbers of the amount of patients tested as well as with regard to the phosphate binder and the dosing of phosphate binder and nicotinamide, further details can be taken from the following description, also with regard to the Figures.
These findings are derived from several clinical findings in which chronic renal insufficient patients underwent various medication regimes after an initial wash out phase over 4 weeks to eliminate and to control for pre-medication effects.

Read-outs that look alike come from different tables or passages of the source.

Consider `O=C(O)P(=O)(O)O` [PFA, Phosphonoformic acid], for which the “Pharmacological regulators (direction of regulation) of NaPi-IIb” value in assay [1] is “PFA (↓)”. The “Pharmacological regulators (direction of regulation) of NaPi-IIa” value in assay [2] was “PFA (↓)”. Further, in [3], the “Pharmacological regulators (direction of regulation) of NaPi-IIc” value is recorded as “PFA (↓)”.

For `NC(=O)c1cccnc1` [nicotinamide], the “lowering elevated phosphate levels” value in assay [4] and in [5] was “effective” in each case. Further, the “Pharmacological regulators (direction of regulation) of NaPi-IIb” value in assay [1] was “Nicotinamide (↓)”. Moreover, in assay [6], the “expression of NaPi-IIb in the small intestine” value is “downregulates”. The “gastrointestinal absorption of phosphate” value in [7] is on record as “inhibits”. In [8], the “expression of NaPi-IIb” value is on record as “blocks”. Also, the “reduction of serum phosphate” value in assay [9] (combination of nicotinamide and known phosphate lowering agents versus dose-equivalent nicotinamide alone or binders alone) was “more profound and superior reduction”. Further, the “patients achieving target levels <1.78 mmol/l” value in assay [9] (nicotinamide 250 to 1000 mg once daily as add on to previous conventional phosphate binder therapy, 9 weeks, n=126 ITT) turned out to be 69%. Besides, the “patients with phosphate levels <1.78 mmol/l” value in assay [9] (nicotinamide alone, 250 to 1000 mg oral once daily, 9 weeks, n=126 ITT) was 45%.
